Counter-ions that a name gives are not always drawn.
Tested on: relapsed AML cells
Assay: Drug sensitivity assay, 1,536-well, 3-day culture with individual approved drugs at 10 μM, viability by alamarBlue
Format: cell-based, human
Settings: number of relapsed AML cases out of 18 tested with >70% cell death; 10 μM, 3-day culture
Outline: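 FACS-sorted viable myeloid blasts from thawed AML samples, 4,000-4,500 cells per 5 μL well, cultured in IMDM with 15% BIT, SCF, FLT3L, IL-3, G-CSF. Drugs added per well; after three days percentage of live cells measured to gauge killing.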

First: CCC(=O)OCC(=O)[C@@]1(OC(=O)CC)[C@@H](C)C[C@H]2[C@@H]3CCC4=CC(=O)C=C[C@]4(C)[C@@]3(Cl)[C@@H](O)C[C@@]21C [BECLOMETHASONE DIPROPIONATE]
Second: COC1=CC(c2cc3ccccc3[nH]2)=N/C1=C\c1[nH]c(C)cc1C [OBATOCLAX]
The “#Cases >70% cell death” value of the first is lower: 1 for the first, 2 for the second.

CC(C)NCC(O)COc1ccc(CC(N)=O)cc1 (stereo not drawn) [ATENOLOL] and CCCn1c(=O)c2[nH]c(C34CC5CC(CC3C5)C4)nc2n(CCC)c1=O [ROLOFYLLINE] are the same in “#Cases >70% cell death” value: 1 for the first, 1 for the second.

First: COc1c(C)c2c(c(O)c1C/C=C(\C)CCC(=O)OCCN1CCOCC1)C(=O)OC2 [MYCOPHENOLATE MOFETIL]
Second: COc1cc2nccc(Oc3ccc(NC(=O)C4(C(=O)Nc5ccc(F)cc5)CC4)cc3)c2cc1OC [CABOZANTINIB]
The “#Cases >70% cell death” value of the first is higher: 5 for the first, 2 for the second.

Compared with CCN(CC)CCN1C(=O)c2c(c3c4cccc(Cl)c4n([C@@H]4O[C@H](CO)[C@@H](OC)[C@H](O)[C@H]4O)c3c3[nH]c4c(Cl)cccc4c23)C1=O [BECATECARIN], CCOc1cc2ncc(C#N)c(Nc3ccc(OCc4cccc(F)c4)c(Cl)c3)c2cc1NC(=O)/C=C/CN(C)C [HKI 357] is lower in “#Cases >70% cell death” value: 18 for the first, 4 for the second.

Compared with CC(=O)OCC(=O)[C@@]12N=C(C)O[C@@H]1C[C@H]1[C@@H]3CCC4=CC(=O)C=C[C@]4(C)[C@H]3[C@@H](O)C[C@@]12C [DEFLAZACORT], CC[C@]1(O)C[C@@H]2CN(CCc3c([nH]c4ccccc34)[C@@](C(=O)OC)(c3cc4c(cc3OC)N(C)[C@H]3[C@@](O)(C(=O)OC)[C@H](OC(C)=O)[C@]5(CC)C=CCN6CC[C@]43[C@@H]65)C2)C1 [VINBLASTINE] is higher in “#Cases >70% cell death” value: 8 for the first, 14 for the second.

Going from O=C(CCCN1CC=C(n2c(=O)[nH]c3ccccc32)CC1)c1ccc(F)cc1 [DROPERIDOL] to CC[C@H](C)C(=O)O[C@H]1CCC=C2C=C[C@H](C)[C@H](CC[C@@H]3C[C@@H](O)CC(=O)O3)[C@H]21 [MEVASTATIN], the “#Cases >70% cell death” value rises from 2 to 7.

Compared with CC[C@H]1CN2CCc3cc(OC)c(OC)cc3[C@@H]2C[C@@H]1C[C@H]1NCCc2cc(OC)c(OC)cc21 [EMETINE], CS(=O)(=O)N1CCc2c(-c3cnc(N)nc3)nc(N3CCOCC3)nc21 [CH5132799] is lower in “#Cases >70% cell death” value: 18 for the first, 3 for the second.

Compared with EXATECAN MESYLATE, Nc1ccc2cc3ccc(N)cc3nc2c1 [PROFLAVINE HEMISULFATE] is lower in “#Cases >70% cell death” value: 12 for the first, 3 for the second.

Going from O=C(/C=C/c1ccc(CN(CCO)CCc2c[nH]c3ccccc23)cc1)NO [LAQ-824] to C[C@H]1C[C@@H]2[C@H]([C@@H](O)C[C@@]3(C)[C@H]2CC[C@]3(O)C(=O)CO)[C@@]2(C)C=CC(=O)C=C12 [METHYLPREDNISOLONE], the “#Cases >70% cell death” value falls from 18 to 1.

First: CO[C@H]1C(=O)[C@]2(C)[C@@H](OC)C[C@H]3OC[C@@]3(OC(C)=O)[C@H]2[C@H](OC(=O)c2ccccc2)[C@]2(O)C[C@H](OC(=O)[C@H](O)[C@@H](NC(=O)OC(C)(C)C)c3ccccc3)C(C)=C1C2(C)C [CABAZITAXEL]
Second: COc1cc(NC(C)CCCN)c2ncccc2c1 (stereo not drawn) [PRIMAQUINE]
The “#Cases >70% cell death” value of the first is lower: 5 for the first, 12 for the second.

Going from Cn1c(C#N)ccc1-c1ccc2c(c1)C(C)(C)OC(=S)N2 [TANAPROGET] to O=S(=O)([O-])CCSSCCS(=O)(=O)[O-].[Na+].[Na+] [DIMESNA], the “#Cases >70% cell death” value falls from 5 to 1.

First: Cc1ccc(C(=O)N(CCCN)[C@@H](c2nc3cc(Cl)ccc3c(=O)n2Cc2ccccc2)C(C)C)cc1 [ISPINESIB MESYLATE]
Second: CC(C)(Sc1cc(C(C)(C)C)c(O)c(C(C)(C)C)c1)Sc1cc(C(C)(C)C)c(O)c(C(C)(C)C)c1 [PROBUCOL]
The “#Cases >70% cell death” value of the first is lower: 2 for the first, 4 for the second.

Compared with O=c1[nH]cc(F)c(=O)[nH]1 [FLUOROURACIL], N=C(N)NC(=O)Cc1c(Cl)cccc1Cl [GUANFACINE HCL] is lower in “#Cases >70% cell death” value: 4 for the first, 1 for the second.

First: CN(C)c1ccc(C(=C2C=CC(=[N+](C)C)C=C2)c2ccc(N(C)C)cc2)cc1 [GENTIAN VIOLET]
Second: O=C(c1ccc(/C=C/c2n[nH]c3ccccc23)cc1)N1CCNCC1 [KW-2449]
The “#Cases >70% cell death” value of the first is higher: 18 for the first, 9 for the second.

Compared with CC[n+]1c(-c2ccccc2)c2cc(N)ccc2c2ccc(N)cc21 [HOMIDIUM BROMIDE], CCN(CC)CCN(Cc1ccc(-c2ccc(C(F)(F)F)cc2)cc1)C(=O)Cn1c(SCc2ccc(F)cc2)nc(=O)c2c1CCC2 [DARAPLADIB] is higher in “#Cases >70% cell death” value: 1 for the first, 18 for the second.

Compared with Cc1nc2ccccc2n1Cc1ccc(Cl)cc1 [CHLORMIDAZOLE], O=C1NCC2(CCN(CCc3ccccc3)CC2)O1 [FENSPIRIDE] is higher in “#Cases >70% cell death” value: 1 for the first, 3 for the second.

Going from Cn1cnc([N+](=O)[O-])c1Sc1ncnc2nc[nH]c12 [AZATHIOPRINE] to CC(C)[C@H](N)C(=O)OCCOCn1cnc2c(=O)[nH]c(N)nc21 [VALACICLOVIR], the “#Cases >70% cell death” value falls from 10 to 1.

Compared with C[C@@H]1O[C@@H](O[C@H]2C[C@@H](O)[C@]3(CO)[C@H]4[C@H](O)C[C@]5(C)[C@@H](C6=CC(=O)OC6)CC[C@]5(O)[C@@H]4CC[C@]3(O)C2)[C@H](O)[C@H](O)[C@H]1O.O.O.O.O.O.O.O.O [STROPHANTINE OCTAHYDRATE], O=C(c1ccc(OCCN2CCCCC2)cc1)c1c(-c2ccc(O)cc2)sc2cc(O)ccc12 [RALOXIFENE] is lower in “#Cases >70% cell death” value: 18 for the first, 3 for the second.

O=c1[nH]c2ccccc2n1C1CCN(CCCC(c2ccc(F)cc2)c2ccc(F)cc2)CC1 [PIMOZIDE] and Cc1nc2sccn2c(=O)c1CCN1CCC(=C(c2ccc(F)cc2)c2ccc(F)cc2)CC1 [RITANSERIN] are the same in “#Cases >70% cell death” value: 1 for the first, 1 for the second.

First: CCCC1O[C@@H]2C[C@H]3[C@@H]4CCC5=CC(=O)C=C[C@]5(C)[C@H]4[C@@H](O)C[C@]3(C)[C@]2(C(=O)CO)O1 (stereo partly drawn) [BUDESONIDE]
Second: N#C[C@@H]1CCCN1C(=O)CNC12CC3CC(CC(O)(C3)C1)C2 [VILDAGLIPTIN]
The “#Cases >70% cell death” value of the first is higher: 2 for the first, 1 for the second.

N#C[C@@H]1C[C@@H]2C[C@@H]2N1C(=O)[C@@H](N)C12CC3CC(CC(O)(C3)C1)C2 [SAXAGLIPTIN] and CCOC(=O)c1c(N)sc2c1CCN(Cc1ccccc1)C2 [Y-3642] are the same in “#Cases >70% cell death” value: 1 for the first, 1 for the second.

O=C(CCCN1CCN(c2ccccn2)CC1)c1ccc(F)cc1 [AZAPERONE] and CN1CCN(c2ncc(-c3cc(Cl)cc(Cl)c3Cl)c(N)n2)CC1 [SIPATRIGINE] are the same in “#Cases >70% cell death” value: 1 for the first, 1 for the second.

Compared with CCOC(=O)C1=C(C)NC(C)=C(C(=O)OCC)C1c1ccccc1/C=C/C(=O)OC(C)(C)C [LACIDIPINE], CC(=O)[C@H]1CC[C@H]2[C@@H]3C=CC4=CC(=O)CC[C@@]4(C)[C@@H]3CC[C@]12C [DYDROGESTERONE] is lower in “#Cases >70% cell death” value: 2 for the first, 1 for the second.

Compared with COc1ccc(-c2ccc3ncc4c(c3c2)n(-c2ccc(N3CCNCC3)c(C(F)(F)F)c2)c(=O)n4C)cn1 [NVP-BGT226], Clc1ccc(C(Cn2ccnc2)OCc2csc3c(Cl)cccc23)c(Cl)c1 (stereo not drawn) [SERTACONAZOLE] is lower in “#Cases >70% cell death” value: 8 for the first, 2 for the second.

Compared with CCC[C@H](Nc1nc(-c2ccc(NC(=O)NCC)c(OC)c2)ncc1C)c1cccnc1 [LEXIBULIN], CC1=C(C(=O)OC(C)C)C(c2cccc([N+](=O)[O-])c2)C(C(=O)OC2CN(C(c3ccccc3)c3ccccc3)C2)=C(N)N1 (stereo not drawn) [AZELNIDIPINE] is lower in “#Cases >70% cell death” value: 13 for the first, 5 for the second.

With COc1ccc(F)c(F)c1C(=O)c1cnc(NC2CCN(S(C)(=O)=O)CC2)nc1N [R-547] the “#Cases >70% cell death” value was 18.

Reference: patent US20210405025A1, “IDENTIFYING COMPOUNDS FOR TREATING CANCER AND USE THEREOF” (THE UAB RESEARCH FOUNDATION, priority 2018, published 2021)
